Values joined by “and” are separate entries in the source; they are usually repeats but may differ in a detail not shown here. Equal values may be shown once.
Assays:
[1] = target: T1, Ub activating enzyme (UAE) (Homo sapiens, UniProt P22314); assay: UAE transthiolation assay (Ub transfer to His6-UbcH6); assay type: biochemical
T1 construct: purchased Boston Biochem
T1 sequence (P22314 1-1058): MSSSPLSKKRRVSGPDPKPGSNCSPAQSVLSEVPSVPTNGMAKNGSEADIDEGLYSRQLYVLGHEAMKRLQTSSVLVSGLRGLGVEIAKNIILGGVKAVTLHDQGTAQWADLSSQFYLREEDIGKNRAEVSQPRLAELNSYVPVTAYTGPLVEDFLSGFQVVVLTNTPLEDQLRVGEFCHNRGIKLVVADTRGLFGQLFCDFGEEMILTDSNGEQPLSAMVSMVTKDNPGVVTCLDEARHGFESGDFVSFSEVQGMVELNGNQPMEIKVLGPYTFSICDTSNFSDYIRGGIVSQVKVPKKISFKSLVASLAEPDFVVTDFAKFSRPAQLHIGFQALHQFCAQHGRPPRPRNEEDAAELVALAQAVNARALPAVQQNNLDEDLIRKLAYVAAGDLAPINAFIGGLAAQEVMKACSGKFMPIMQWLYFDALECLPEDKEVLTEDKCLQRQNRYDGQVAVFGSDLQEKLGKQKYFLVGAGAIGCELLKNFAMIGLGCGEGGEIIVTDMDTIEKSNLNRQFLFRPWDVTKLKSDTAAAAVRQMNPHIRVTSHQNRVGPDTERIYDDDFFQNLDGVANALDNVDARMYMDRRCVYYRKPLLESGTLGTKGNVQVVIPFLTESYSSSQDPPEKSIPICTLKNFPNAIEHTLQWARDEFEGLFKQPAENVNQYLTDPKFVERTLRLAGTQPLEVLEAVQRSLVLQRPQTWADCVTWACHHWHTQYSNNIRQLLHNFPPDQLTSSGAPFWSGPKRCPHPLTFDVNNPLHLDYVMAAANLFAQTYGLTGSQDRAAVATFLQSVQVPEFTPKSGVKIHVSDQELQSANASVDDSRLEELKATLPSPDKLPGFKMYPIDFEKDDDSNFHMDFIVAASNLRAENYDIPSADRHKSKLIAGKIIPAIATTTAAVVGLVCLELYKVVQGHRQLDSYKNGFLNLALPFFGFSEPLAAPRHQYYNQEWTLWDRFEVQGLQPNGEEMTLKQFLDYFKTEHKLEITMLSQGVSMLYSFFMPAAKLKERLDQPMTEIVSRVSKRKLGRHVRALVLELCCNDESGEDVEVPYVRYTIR
Description: Initial rates were recorded over 30 second time intervals from 0 to 2.5 min (normal kinetics) or 0 to 5 min (inhibition kinetics). Reactions were initiated by the addition of ATP and stopped using 4× Laemmli sample buffer (BioRad). The generated protein conjugates were separated on a 10% non-degenerating SDS-polyacrylamide gel (4-15% gels were used for the UAE transthiolaton assay), followed by Western blot analysis, with the exception of GST-UBA5 where protein bands were detected using Coomassie™ Brilliant Blue R-250 staining or Stain-Free gel imaging for the enzymatic assays (Bio-Rad). Transfers for the UAE and NAE immunoblots were performed using nitrocellulose membranes and blocking and blotting was performed as described above with cellular protein extracts. The His6-tagged Ub-UBCH6 complex was detected using an anti-His mouse monoclonal primary antibody (1:500, abcam). A rabbit anti-NEDD8 polyclonal primary antibody (1:500, BostonBiochem) was used for the detection of the E2-NEDD8 complexes. […] Inhibitory data was fit to a dose-response curve (Y=Bottom+(Top−Bottom)/(1+10^(X-Log IC50))) using GraphPad Prism 6.

[2] = test system: NEDD8 downstream protein labeling in A549 cells; details: A549, increasing concentrations
Description: (§1) Cells were washed twice with cold PBS and protein extracts were prepared using RIPA buffer with a protease and phosphatase inhibitor cocktail (Roche #11836153001, #04906845001). Protein concentrations were determined using the BCA protein quantification technique (BCA Protein assay kit, Pierce). In each assay, 30 μg of whole cell protein extract was resolved on a 10% SDS-polyacrylamide gel and transferred to a PVDF membrane (Bio-Rad). The membranes were blocked with SuperBlock (Thermo scientific; No. 37515) for at least 1 hr followed by an overnight incubation in primary antibody. Blots were probed with antibodies against UBA5 (abcam; ab109227) and UFM-1 (abcam; ab09305) in a 1:1000 dilution, and anti-β-actin (1:5000 dilution; Cell Signaling, 3700S) was used as a loading control. Fluorescent labeled secondary antibodies anti-rabbit Alexa Fluor® 647 Conjugate (red, 1:5000) and anti-mouse Alexa Fluor® 488 Conjugate (green, 1:20,000) were used to detect bands (Cell Signaling; 4414S and 4408S, respectively). The bands were visualized and analyzed using Image lab software (Bio-Rad).
(§2) Bands were visualized using anti-rabbit Alexa Fluor® 647 (1:5000, for NEDD8 and NEDD8 conjugates) and anti-mouse Alexa Fluor® 488 (1:20,000, for actin) secondary antibodies.

[3] = test system: NEDD8 downstream protein labeling in Sk-Luci6 cells; details: Sk-Luci6, increasing concentrations
Description: as §1, §2

## Nc1ncnc2c1ncn2[C@@H]1O[C@H](C(=O)NCCCCCC(=O)N2CCNCCNCCNCC2)[C@@H](O)[C@H]1O.O=S(=O)([O-])C(F)(F)F.O=S(=O)([O-])C(F)(F)F.[Zn+2] [Compound 1.5.Zn, (2S,3S,4R,5R)—N-(6-(1,4,7,10-tetraazacyclododecan-1-yl)-6-oxohexyl)-5-(6-amino-9H-purin-9-yl)-3,4-dihydroxytetrahydrofuran-2-carboxamide zinc trifluoromethanesulfonate]
[1]; n=3-6
  IC50: 76.7 µM and 78.5 µM
[1]; ratio of IC50
  selectivity for UBA5 over UAE: > 20 fold and ~20 fold
[2]
  intracellular NAE inhibition (NEDD8 labeling): no intracellular NAE inhibition
[3]
  intracellular NAE inhibition (NEDD8 labeling): no intracellular NAE inhibition
